In article PMC11926245, “Structural recognition and stabilization of tyrosine hydroxylase by the J-domain protein DNAJC12” (Nature Communications, 2025):

How the values were obtained:
TH:DNAJC12 complex [1] = molecular target: T1, TH:DNAJC12 complex (Homo sapiens, UniProt P07101); experiment: TH activity, L-Dopa quantified by HPLC with fluorescence detection; type: biochemical
T1 construct: both full-length wild-type, each expressed in E. coli as HisMBP fusion, tags cut with TEV protease; with DnaJ homolog subfamily C member 12

TH:DNAJC12 complex [2] = molecular target: T1, TH:DNAJC12 complex; experiment: cryo-EM 3D reconstruction ([…] Å map); type: binding; conditions: Fe(III)-catecholate complex; map EMD-18289, no PDB model deposited; regulatory helix 39-58 density at active sites
TH:DNAJC12 complex [3] = molecular target: T1, TH:DNAJC12 complex; experiment: differential scanning fluorimetry (SYPRO Orange); type: binding; conditions: 0.23 µM TH:DNAJC12 complex, 9 µM DA, ferrous ammonium sulfate; stabilization
TH (TH-WT, hTH1) [4] = molecular target: T2, TH (TH-WT, hTH1) (Homo sapiens, UniProt P07101); experiment: TH activity, L-Dopa quantified by HPLC with fluorescence detection; type: biochemical
T2 construct: full-length wild-type (C-terminal residue 497), expressed in E. coli as HisMBP fusion from pETMBP1a/hTH1, tags cut with TEV protease

TH (TH-WT, hTH1) [5] = molecular target: T2, TH (TH-WT, hTH1); experiment: differential scanning fluorimetry (SYPRO Orange); type: binding; conditions: 0.23 µM TH tetramer, 9 µM DA, ferrous ammonium sulfate; stabilization

T1 sequence (P07101 1-497 isoform P07101-3): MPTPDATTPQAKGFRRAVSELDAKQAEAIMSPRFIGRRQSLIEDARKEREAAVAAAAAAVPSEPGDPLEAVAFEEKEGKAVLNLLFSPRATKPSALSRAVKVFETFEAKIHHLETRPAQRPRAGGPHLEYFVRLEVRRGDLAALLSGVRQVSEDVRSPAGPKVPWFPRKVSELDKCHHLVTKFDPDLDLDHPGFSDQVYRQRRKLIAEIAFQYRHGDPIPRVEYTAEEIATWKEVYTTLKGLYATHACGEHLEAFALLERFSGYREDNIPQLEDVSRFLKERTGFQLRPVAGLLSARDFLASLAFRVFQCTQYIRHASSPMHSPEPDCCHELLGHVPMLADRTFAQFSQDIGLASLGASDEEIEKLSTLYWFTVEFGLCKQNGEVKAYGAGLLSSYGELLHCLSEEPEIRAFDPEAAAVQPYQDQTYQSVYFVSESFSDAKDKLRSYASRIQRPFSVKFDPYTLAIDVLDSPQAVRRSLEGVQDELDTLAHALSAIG
T1 sequence (Q9UKB3 whole entry partner, the tested form may be a part): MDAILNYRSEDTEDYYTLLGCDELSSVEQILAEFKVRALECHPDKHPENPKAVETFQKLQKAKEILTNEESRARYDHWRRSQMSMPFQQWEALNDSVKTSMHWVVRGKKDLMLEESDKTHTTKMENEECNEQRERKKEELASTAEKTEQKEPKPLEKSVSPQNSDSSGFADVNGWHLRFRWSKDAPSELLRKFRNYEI
T2 sequence (P07101 1-497 isoform P07101-3): as the sequence (P07101 1-497 isoform P07101-3) above

IC50 (TH:DNAJC12 complex [1]): 356 ± 103 nM
IC50 (TH (TH-WT, hTH1) [4]): 363 ± 82 nM
SMILES: NCCc1ccc(O)c(O)c1 [dopamine]
cryo-EM 3D reconstruction (5.0 Å map) (TH:DNAJC12 complex [2]): 3D reconstruction of TH:DNAJC12 in the presence of the feedback inhibitor DA (TH(DA):DNAJC12)
Tm (TH:DNAJC12 complex [3]): we also observed a Tm increase for the TH:DNAJC12 complex in the presence of DA
Tm (TH (TH-WT, hTH1) [5]): adding equimolar amounts of DA (per TH subunit) increased the Tm of TH
